# Measured values published in PubChem BioAssay AID651685 (The Scripps Research Institute Molecular Screening Center, 2012).
# Activity calls are given as the source filed them. How the calls were made is not given here.
# Target: Mu-type opioid receptor (Homo sapiens) (UniProt P35372)
# Test: mu-delta opioid heterodimer formation enhancers – cell-based, luminescence, dose response, late-stage follow-up (AID 651685)
# Details: cells, OPRM1-OPRD1 heterodimerization, luminescence complementation
# Chain of Mu-type opioid receptor (Homo sapiens) (P35372 whole entry, looked up): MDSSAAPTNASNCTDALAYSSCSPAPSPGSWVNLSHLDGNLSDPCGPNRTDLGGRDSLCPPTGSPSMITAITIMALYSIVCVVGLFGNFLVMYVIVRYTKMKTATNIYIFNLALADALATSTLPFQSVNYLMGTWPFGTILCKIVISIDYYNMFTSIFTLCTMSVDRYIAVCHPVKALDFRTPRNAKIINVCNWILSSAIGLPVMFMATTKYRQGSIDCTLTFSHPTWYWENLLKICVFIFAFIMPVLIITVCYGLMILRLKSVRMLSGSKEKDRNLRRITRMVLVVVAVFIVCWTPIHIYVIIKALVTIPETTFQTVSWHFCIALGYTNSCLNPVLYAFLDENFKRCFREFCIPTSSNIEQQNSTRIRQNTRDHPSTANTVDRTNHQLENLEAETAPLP
row,Structure (SMILES),EC50
1,CCOC(=O)C1(CCOc2ccccc2)CCN(Cc2cccn2-c2cccnc2)CC1,4.4 µM
2,CCOC(=O)C1(CCOc2ccccc2)CCN(Cc2ccc(O)c(OC)c2)CC1,inactive
3,CCOC(=O)C1(CCc2ccccc2)CCN(Cc2ccccc2C)CC1,7 µM
4,CCOC(=O)C1(CC2CCCCO2)CCN(Cc2c(C)cc(C)cc2-n2cccn2)CC1 (stereo unspecified),0.901 µM
5,CCOC(=O)C1(CCc2ccccc2)CCN(Cc2ccc(OC(C)C)c(C#N)c2)CC1,> 40 µM (inactive)
6,CCOC(=O)C1(CCCc2ccccc2)CCN(Cc2cnn(C)c2)CC1,8.9 µM
7,CCOC(=O)C1(CCc2ccccc2)CCN(Cc2cc(C)cc(C)c2)CC1,> 40 µM (inactive)
8,OCC1(CCc2ccccc2)CCN(Cc2cc(F)ccc2-n2cccn2)CC1,> 40 µM (inactive)
9,CCOC(=O)C1(CCc2ccccc2)CCN(Cc2ccc(NC(C)=O)cc2)CC1,0.403 µM
10,CCOC(=O)C1(Cc2ccccc2)CCN(Cc2cccn2-c2cccnc2)CC1,> 40 µM (inactive)
11,CCOC(=O)C1(Cc2ccccc2)CCN(Cc2cccn2-c2nccs2)CC1,> 40 µM (inactive)
